From patent US11298400B2, “Method of enhancing the therapeutic efficacy of fexapotide triflutate in treating LUTS” (Nymox Corporation, priority 2019, dated 2022)
Marks after values point to notes of the source that are not given here. Ends that are not written are not given here.

Tests used:
[1] = tested on: Patients with BPH and who optionally also had LUTS; assay: Clinical trial: inability to provide urine volume >125 mL (Qmax unable) after intraprostatic injection; format: in vivo, human; conditions: for improvement in percentage of patients with Qmax failures: FT twice over at least one year; for % of Patients With Inability to Provide Urine Volume >125 mL: intraprostatic
Description: (§1) Clinical trials were conducted on numerous individuals having BPH, some of whom also had LUTS. All protocols were done in accordance with applicable regulations, and carried out by physicians.
Patients with BPH and who optionally also had LUTS were given an intraprostatic injection of either a) FT 2.5 mg in phosphate buffered saline pH 7.2 (“PBS”) or b) PBS alone, under double-blind conditions by a urologist in an office setting under ultrasound guidance. Patients were followed for >=3 months to several years with regular physical examinations, laboratory tests, and evaluations of symptoms. […] Subjects who were unable to void >=125 mL despite drinking as much water as they wanted were classified as “Qmax unable”. The numbers of subjects who became Qmax unable was compared in different groups.

[2] = tested on: Patients with BPH and who optionally also had LUTS; assay: Clinical trial: urinary peak flow rate (Qmax) mean change from baseline; format: in vivo, human; conditions: for improvement in peak flow rate mean change from baseline: FT twice over at least one year; for Mean Change of Qmax from baseline: intraprostatic
Description: as §1
Patients were followed for >=3 months to several years with regular physical examinations, laboratory tests, and evaluations of symptoms. Urinary peak flow (Qmax) was measured by flow-meter readings using standard techniques, at 3 months and at 12 months or longer in subjects who were able to urinate adequate volume of urine (>125 mL) to provide a valid test. All peak flow measurements were assessed by a blinded central reader. The mean peak flow rate change from baseline was compared in different groups.

[3] = tested on: Patients with BPH and who optionally also had LUTS; assay: Clinical trial: nocturia score (IPSS question 7) mean change from baseline; format: in vivo, human; conditions: for improvement in nocturia score mean change from baseline: FT twice over at least one year; for Nocturia Score Mean Change From Baseline: intraprostatic, IPSS question 7, (SD)
Source text: Improvements in obstructive and irritative symptoms can be measured in accordance with techniques known in the art. For example, uroflowmeters are known to differentiate urine weight change to provide a continuous plot of the flow rate vs. time that is smoothed by internal electronic filtering to permit precise (±5%) measurement of Qmax. Schafer W, et al. “Good urodynamic practices: Uroflowmetry, filling cystometry and pressure-flow studies,” Neurourol Urodynamics, Vol. 21, pp. 261-74 (2002). Nocturia can be measured in a variety of manners, most of which involve patients completing a questionnaire before and after treatment to establish a baseline, and then determine the difference (improvement, lack of improvement, worsening, etc.) from baseline after treatment. Exemplary questionnaires include evaluating the scores from the nocturia question included in the International Prostate Symptom Score (IPSS), assessing the number of nocturnal voids (Boyarsky symptom score), the Madsen-Iversen Symptom Score, and the ICSmale questionnaire. See, e.g., Chartier-Kastler, et al., “The Measurement of Nocturia and its Impact on Quality of Sleep and Quality of Life in LUTS/BPH,” Eur. Urol. Supp., Vol. 5, pp. 3-11 (2006). A preferred method of measuring nocturia is by determining the mean change from baseline of the nocturia question in the IPSS (question 7). Question 7 solicits from the patient how many times over the past month they had to get up to urinate from the time they went to bed until the time they got up—the score ranging from none (score 0) to 5 or more times (score 5).
as §1
Patients with BPH and who optionally also had LUTS were given an intraprostatic injection of either a) FT2.5 in 10 mL phosphate buffered saline pH 7.2 (“PBS”) or b) FT 5.0 mg in PBS or c) FT 2.5 mg in PBS 2-dosages given >1 year apart, or d) PBS 10 mL alone, under double-blind conditions by a urologist in an office setting under ultrasound guidance. Patients were followed for >=3 months to several years with regular physical examinations, laboratory tests, and evaluations of symptoms. The mean difference from baseline nocturia scores to follow-up scores (nocturia scores are the values provided to question #7 in the IPSS) were calculated in FT treated subjects given single dose FT 2.5 mg, single dose FT 0.5 mg, 2-dose 2.5 mg>1 year apart, and Placebo treated controls.

[4] = tested on: prostate glandular epithelial cells; assay: Tissue culture genetic array, in vitro; format: cell-based; conditions: tissue culture genetic array data
Source text: FT selectively causes loss of cell membrane integrity, mitochondrial metabolic arrest, depletion of RNA, DNA lysis and aggregation, and cell fragmentation and cell loss. The apoptotic process leads to typical ultrastructural progressive changes of membranous disruption and swelling, progressively deepening nuclear invaginations with eventual membranous bleb formations and cell death and fragmentation into apoptotic bodies. Histologically, typical apoptotic changes with positive immunohistochemical staining of markers for apoptosis are found throughout the injected areas for up to several weeks after treatment.

[5] = compared to a single administration of four times the amount
[6] = compared to a single administration of twice the amount
[7] = Two Doses of 2.5 mg FT > 1 year apart

Fexapotide Triflutate (IDQQVLSRIKLEIKRCL; also: trifluoroacetate salt) [FT]
inhibition of the progression of urinary flow worsening ([1]; 2 single dosages of 2.5 mg separated by >1 year, vs one-time 5.0 mg or 10.0 mg dose): significantly better inhibition | improvement in percentage of patients with Qmax failures [1, 5]: about 83.3% | improvement in percentage of patients with Qmax failures [1, 6]: about 81.4% | improvement in percentage of patients with Qmax failures ([1]; compared to the control): about 77% | % of Patients With Inability to Provide Urine Volume >125 mL ([1]; Single Dose of 5.0 mg FT, 90 days after last treatment): 21%* (90 days) | % of Patients With Inability to Provide Urine Volume >125 mL ([1]; Single Dose of 10.0 mg FT, 90 days after last treatment): 23.3%** (90 days) | % of Patients With Inability to Provide Urine Volume >125 mL ([1]; Two Doses of 2.5 mg FT > 1 year apart, 180 days after last treatment): 3.9% (180 days) | inhibition of the progression of urinary flow worsening ([1]; double (two 2.5 mg doses) or 4X (four 2.5 mg doses) single dose, vs single dose 2.5 mg): did not have significantly better response than single dose 2.5 mg | inhibition of the progression of urinary flow worsening ([1]; single dose of FT 2.5 mg, after 3 months, vs control groups): not significantly better than control groups | improvement in peak flow rate mean change from baseline [2, 5]: about 47% | improvement in peak flow rate mean change from baseline [2, 6]: about 102% | improvement in peak flow rate mean change from baseline ([2]; compared to the control): about 111% | Mean Change of Qmax from baseline ([2]; Single Dose of 5.0 mg FT): 1.28 mL/s | Mean Change of Qmax from baseline ([2]; Single Dose of 10.0 mg FT): 1.76 mL/s | Mean Change of Qmax from baseline [2, 7]: 2.59 mL/s | improvement in nocturia score mean change from baseline ([3]; compared to a single administration of the same individual amount): about 37% | improvement in nocturia score mean change from baseline ([3]; compared to a single administration of twice the individual amount): about 19.4% | improvement in nocturia score mean change from baseline ([3]; compared to the control): about 48% | Nocturia Score Mean Change From Baseline ([3]; Single Dose of 5.0 mg FT): −0.54 (SD 1.1)* | Nocturia Score Mean Change From Baseline ([3]; Single Dose of 10.0 mg FT): −0.62 (SD 1.64)* | Nocturia Score Mean Change From Baseline [3, 7]: −0.74 (SD 1.26)**, *** | effect on caspase, tumor necrosis factor and BCL pathways [4]: stimulates caspase pathways
